# Experimental data reported in ChEMBL document CHEMBL1150484, “Structure-based design of achiral anthranilamides as P2/P2 surrogates for symmetry-based HIV protease inhibitors: design, synthesis, X-ray structure, enzyme inhibition and antiviral activity” (Bioorg Med Chem Lett, 1995).
# pEC50, pKi: −log10 of the molar value.
# How the values were obtained:
# [1] = Partition coefficient (logP); format: physicochemical; conditions: octanol/water
# [2] = target: T1, Human immunodeficiency virus type 1 protease (Human immunodeficiency virus 1, UniProt Q72874); test: Tested for inhibition of HIV protease using fluorogenic substrate
# [3] = test system: CCRF-CEM; test: Concentration required to produce 50 percent inhibition of HIV-1 infection in CEM cells; format: functional, cell-based; conditions: Homo sapiens
# [4] = Tested for cytotoxicity in HIV-1 infected human T-lymphocyte cell culture; format: functional; conditions: read-out: TC50 (the source's name)
# [5] = target: T1, Human immunodeficiency virus type 1 protease; test: Tested for inhibition of HIV protease using fluorogenic substrate; insoluble
Structure (SMILES),logP ([1]; read-out: logP),pKi [2],pEC50 [3],logP [1],CC50 [4],Ki [5]
O=C(Nc1ncccc1C(=O)N[C@@H](Cc1ccccc1)[C@H](O)[C@H](O)[C@H](Cc1ccccc1)NC(=O)c1cccnc1NC(=O)OCc1ccccc1)OCc1ccccc1,7.87,–,–,–,–,–
O=C(Nc1ccccc1C(=O)N[C@@H](Cc1ccccc1)C[C@H](O)[C@H](Cc1ccccc1)NC(=O)c1ccccc1NC(=O)OCc1ccncc1)OCc1ccncc1,5.39,9.35,5.59,–,–,–
O=C(Nc1c(O)cccc1C(=O)N[C@@H](Cc1ccccc1)[C@H](O)[C@H](O)[C@H](Cc1ccccc1)NC(=O)c1cccc(O)c1NC(=O)OCc1ccccc1)OCc1ccccc1,7.96,–,–,–,–,–
O=C(Nc1c(Cl)cccc1C(=O)N[C@@H](Cc1ccccc1)[C@H](O)[C@H](O)[C@H](Cc1ccccc1)NC(=O)c1cccc(Cl)c1NC(=O)OCc1ccccc1)OCc1ccccc1,–,–,–,9.34,–,–
O=C(Nc1ccccc1C(=O)N[C@@H](Cc1ccccc1)C[C@H](O)[C@H](Cc1ccccc1)NC(=O)c1ccccc1NC(=O)OCc1ccccn1)OCc1ccccn1,6.61,10.15,7.25,–,> 50000 nM,–
O=C(CO)Nc1ccccc1C(=O)N[C@@H](Cc1ccccc1)[C@H](O)[C@H](O)[C@H](Cc1ccccc1)NC(=O)c1ccccc1NC(=O)CO,2.52,7.70,4.22,–,–,–
Cc1cccc(C(=O)N[C@@H](Cc2ccccc2)[C@H](O)[C@H](O)[C@H](Cc2ccccc2)NC(=O)c2cccc(C)c2NC(=O)OCc2ccccc2)c1NC(=O)OCc1ccccc1,–,–,–,9.24,–,–
CC(=O)Nc1ccccc1C(=O)N[C@@H](Cc1ccccc1)[C@H](O)[C@H](O)[C@H](Cc1ccccc1)NC(=O)c1ccccc1NC(C)=O,4.32,–,< 4.00,–,–,–
O=C(Nc1ccccc1C(=O)N[C@@H](Cc1ccccc1)C[C@H](O)[C@H](Cc1ccccc1)NC(=O)c1ccccc1NC(=O)OCc1ccccc1)OCc1ccccc1,8.28,–,–,–,–,–
O=C(Nc1ccccc1C(=O)N[C@@H](Cc1ccccc1)[C@H](O)[C@H](O)[C@H](Cc1ccccc1)NC(=O)c1ccccc1NC(=O)OCc1ccccn1)OCc1ccccn1,6.49,–,7.89,–,35000 nM,–
O=C(COCc1ccccc1)Nc1ccccc1C(=O)N[C@@H](Cc1ccccc1)[C@H](O)[C@H](O)[C@H](Cc1ccccc1)NC(=O)c1ccccc1NC(=O)COCc1ccccc1,6.91,< 5.00,–,–,–,–
O=CNc1ccccc1C(=O)N[C@@H](Cc1ccccc1)[C@H](O)[C@H](O)[C@H](Cc1ccccc1)NC(=O)c1ccccc1NC=O,4.89,8.92,6.05,–,–,–
O=C(Nc1ccccc1C(=O)N[C@@H](Cc1ccccc1)[C@H](O)[C@H](O)[C@H](Cc1ccccc1)NC(=O)c1ccccc1NC(=O)OCc1ccccc1)OCc1ccccc1,8.16,–,< 4.00,–,–,–
Cc1nccnc1C(=O)Nc1ccccc1C(=O)N[C@@H](Cc1ccccc1)[C@H](O)[C@H](O)[C@H](Cc1ccccc1)NC(=O)c1ccccc1NC(=O)c1nccnc1C,5.66,< 5.00,–,–,–,–
CCOC(=O)Nc1ccccc1C(=O)N[C@@H](Cc1ccccc1)[C@H](O)[C@H](O)[C@H](Cc1ccccc1)NC(=O)c1ccccc1NC(=O)OCC,6.14,–,–,–,–,Insoluble
O=C(Nc1ccccc1C(=O)N[C@@H](Cc1ccccc1)C[C@H](O)[C@H](Cc1ccccc1)NC(=O)c1ccccc1NC(=O)OCc1cccnc1)OCc1cccnc1,5.86,9.59,6.85,–,–,–
